Patent US20110045065A1, “SUBSTANCE HAVING ANTIOXIDANT, GEROPROTECTIVE AND ANTI-ISCHEMIC ACTIVITY AND METHOD FOR THE PREPARATION THEREOF” (priority 2005, published 2011)
Values joined by “and” are separate entries in the source; they are usually repeats but may differ in a detail not shown here. Equal values may be shown once. “Also recorded” adds a separate entry of the source.

How the values were obtained:
[1] = Antiradical activity by chemiluminescence (rate constant k7); format: physicochemical
Method: The efficiency of 3-hydroxypyridine derivatives as inhibitors of free radical reactions was determined by hemiluminescent method by means of measurement of speed constants of their reaction with ethyl-benzene k7 peroxide radicals.
The measurements of intensity of chemiluminescence (HL) have been carried out with an apparatus CNK-7, designed and made by IHF RAN USSR. A photomultiplier FAU-38 is used as an optical receiver. The fixed concentration of radicals during oxidation of […] (cumole) is controlled by an initiator being azo-bis-isobutyronitrile.
In order to increase HL emission the activator chelate Eu (europium tristenoyl triphtoroacetonate with 1,10-phenatroline) has been used that has allowed to conduct measurements at low speed values of radical initiation (W1=10^−8-10^−9 mol/I.s.) and, therefore, at small amounts of added sample. A weighed amount of samples studied was diluted in an suitable solvent (chlorobenzene or acetonitrile) and a small amount of the prepared solution (0.1-0.25 ml) was added to the reaction mixture (5-6 ml), arranged in a temperature-controlled reaction vessel of the HL-device. The change of emission intensity was recorded.

[2] = test system: traumatic hemophthalmia; test: Experimental traumatic hemophthalmia: preclinical and ultrasonic examination; format: in vivo, chinchilla rabbits; conditions: for Capability of ophthalmoscopy and eyeground: 3-point scale, 0 impossible, 3 details clearly visible; for Density of hemophthalmia: 100 SUD = ultrasonic sclera density; for Area of hemophthalmia / Volume of a hemophthalmia: parabulbar 0.5 ml of 1% solution daily
Method: Studies were carried out in 12 chinchilla rabbits having body weight 2.0-2.5 kg. A traumatic hemophthalmia was modeled by introduction of 0.5 to 0.7 ml of autoblood into a vitreous body through a puncture in a sclera on distance of 5 mm from a limbus, under a local anaesthesia. The basic group made with 6 rabbits (12 eyes), daily received a formulation prepared in accordance with the present invention parabulbarly (0.5 ml of 1% solution). A control group presented by 6 animals (12 eyes), daily received parabulbar emoxipin (2-ethyl-6-methyl-3-hydroxypiridin) in the same dosage. Treatment was carried out within 14 days after a trauma.
Besides the traditional ophthalmologic examination such as biomicroscopy, direct and indirect ophthalmoscopy, all the animals passed through ultrasonic scanning of an eye by means of the device “Voluson 730” (“Kretz”). The studies were carried out on the 1, 3, 7, 10 and 14th day of the experiment. For the estimation of efficiency of the treatment following tests were used: density, area, volume of a hemophthalmia and opportunity (possibility) of ophthalmoscopy of an eye ground. Density of a hemophthalmia was estimated in standard (conventional) units of density (SUD), 100 SUD were accepted for the maximal value, corresponding to the ultrasonic sclera density. Depending on the degree of acoustic density of a hemophthalmia, a high (100-50 SUD), medium (50-25 SUD) and low (less than 25 SUD) densities were distinguished. To determine the hemophthalmia the area measurement in sm^2 was used. The volume of the intraocular hemorrhage was studied with the help of 3D modelling in the B-regimen of a grey scale and measurement in sm^3.
At the ultrasonic examination of the intact rabbit's eyes, the average volume of vitreous body (1.0±0.9 sm^3) and the average area of a vitreous body (1.04±0.8 sm^2) were fixed. Proceeding from the obtained data, the total hemophthalmia (from 100 up to 50% of the vitreous body volume) was equated to the volume of 0.5-1.0 sm^3 and of 0.5-1.0 sm^2, a wide-spread hemophthalmia (50-25% of volume of a vitreous) corresponded to the area of 0.5-0.25 sm^3, both 0.5-0.25 sm^2, and the partial hemophthalmia occupied up to 0.25 sm^3 and 0.25 sm^2 (up to 25% of the vitreous volume).
Capability of the eyeground ophthalmoscopy was estimated by a 3-mark(point) scale depending on the image sharpness (0—ophthalmoscopy is impossible (not capable), 3—details of an eyeground are clearly visible).

[3] = test system: lipofuscin induced cardiolipin photoperoxidation; test: Inhibition of lipofuscin induced cardiolipin liposome photoperoxidation; format: biochemical, human; conditions: for Concentration of TBK-active products / Inhibition: 2 mM compound; for Inhibiting / protective effect regarding phototoxic action of lipofuscin granules: result in words
Method: Liposomes are prepared from methanolic solution of cardiolipin (initial concentration: 5 mg/ml) by evaporation of methanol and solubilization of cardiolipin in a phosphate buffer. A mixture comprising a suspension of liposomes and lipofuscin granules, isolated from tissue of a retinal pigmentary epithelium of a human eye, is subjected to irradiation with intensive blue light under constant stirring. Concentration of lipid peroxidation products (TBK-active products) is determined after 20, 40, 60 and 90 minutes. The experimental sample contained 2 mM of a solution of compound Ic, or 2 mM of a solution of mexydole.

2,4,6-trimethyl-3-oxypyridine succinate [Compound Ic]
Antiradical activity in comparison with mexydole ([1]; result in words): two times higher antiradical activity
k7 × 10^−4 ([1]; speed constant of reaction with ethyl-benzene peroxide radicals): 9.5 l/mol × sec
Capability of ophthalmoscopy and eyeground ([2]; 1st day): 1.5 points
Density of hemophthalmia ([2]; 1st day): 84 ± 2.4 SUD
Area of hemophthalmia ([2]; 1st day): 0.49 ± 0.7 sm^2
Volume of a hemophthalmia ([2]; 1st day): 0.53 ± 0.4 sm^3
Capability of ophthalmoscopy and eyeground ([2]; 3rd day): 0-0.5 points
Density of hemophthalmia ([2]; 3rd day): 72 ± 3.1 SUD
Area of hemophthalmia ([2]; 3rd day): 0.74 ± 0.9 sm^2
Volume of a hemophthalmia ([2]; 3rd day): 0.78 ± 0.2 sm^3
Capability of ophthalmoscopy and eyeground ([2]; 7th day): 1.5 points
Density of hemophthalmia ([2]; 7th day): 49±1.4 SUD
Area of hemophthalmia ([2]; 7th day): 0.47 ± 0.4 sm^2
Volume of a hemophthalmia ([2]; 7th day): 0.51 ± 0.6 sm^3
Capability of ophthalmoscopy and eyeground ([2]; 10th day): 2.2 points
Density of hemophthalmia ([2]; 10th day): 23±1.1 SUD
Hemophthalmia completely resolved ([2]; 10th day, group of 6 rabbits): two animals
Area of hemophthalmia ([2]; 10th day): 0.24±0.1 sm^2 and 0.2 ± 0.1 sm^2
Volume of a hemophthalmia ([2]; 10th day): 0.2±0.1 sm^3 and 0.24 ± 0.1 sm^3
Hemophthalmia completely resolved ([2]; 14th day): 50 % of animals
Capability of ophthalmoscopy and eyeground ([2]; 14th day): 2.8 points
Density of hemophthalmia ([2]; 14th day): 13±0.6 SUD
Area of hemophthalmia ([2]; 14th day): 0.11 ± 0.7 sm^2
Volume of a hemophthalmia ([2]; 14th day): 0.15 ± 0.2 sm^3
Efficiency on resorption of traumatic hemophthalmia ([2]; conclusion in words): positive effect on the resorptive processes in a vitreous body; also recorded: much higher in comparison with emoxipin
Concentration of TBK-active products ([3]; radiation time 0 min): 1.3 nmol/mg lipid
Inhibition ([3]; radiation time 0 min): 0%
Concentration of TBK-active products ([3]; radiation time 20 min): 2.42 nmol/mg lipid
Inhibition ([3]; radiation time 20 min): 20%
Concentration of TBK-active products ([3]; radiation time 40 min): 2.53 nmol/mg lipid
Inhibition ([3]; radiation time 40 min): 28%
Concentration of TBK-active products ([3]; radiation time 60 min): 2.85 nmol/mg lipid
Inhibition ([3]; radiation time 60 min): 40%
Concentration of TBK-active products ([3]; radiation time 90 min): 3.28 nmol/mg lipid
Inhibition ([3]; radiation time 90 min): 40%
Inhibiting / protective effect regarding phototoxic action of lipofuscin granules [3]: active inhibitor
Inhibiting / protective effect regarding phototoxic action of lipofuscin granules ([3]; listed as I): protective effect
